Laboratory results as given in patent publication US20100129418A1, “METHOD OF INDUCING NEGATIVE CHEMOTAXIS USING AN ELLAGITANNIN OR GALLOTANNIN” (priority 2008, published 2010).

Tested on: neutrophils
Assay: Chemorepulsion/chemoattraction transwell migration assay (Neuroprobe ChemoTx plates)
Format: cell-based
Conditions: Homo sapiens, Neutrophil, 1 h, 1.1 mg/ml ellagic acid, CR mode, 1 hour at 37° C., read-out: fold induction of chemorepulsion as compared to media
Procedure: The chemorepulsive activity of ellagic acid was determined as follows: • 1. Prior to beginning the assay, the following were prepared: • a. 0.5% Fetal Calf Serum (FCS) in Iscove's Modified Dulbecco's Medium (IMDM) (Assay Medium) (Both from ATCC). • b. Migratory cells at a concentration of 2×10^7 cells/ml in Assay Medium. • c. The indicated dilutions of ellagic acid Assay Medium. • 2. The assay plates were Neuroprobe ChemoTx plates, part number 206-3 (3 um pore size) for neutrophils. • 3. The plates were removed from packaging, leaving the membrane behind. • 4. 31 μl of the following solutions were pipetted into each well: • a. For media controls and for chemorepulsion samples, Assay Medium was used. • b. For chemoattraction samples, appropriate dilution of ligand was used. • 5. The membrane was carefully placed onto the plate, starting at one side and then slowly lowering the other edge onto the plate. • 6. 29 μl of the following were pipetted onto the top of each circle: • a. For media controls and chemoattraction samples, Assay Medium was used. • b. For chemorepulsion samples, the appropriate dilution of ligand was used. • 7. […] The assay plates were processed by Guava Easy Cyte Plus (using via cell count for read out). • 1. […] The Guava Easy Cyte Plus was used to read the plate and quantify the number of migrated cells. […]

SMILES: O=c1oc2c(O)c(O)cc3c(=O)oc4c(O)c(O)cc1c4c23 [ellagic acid, 2,3,7,8-tetrahydroxy-chromeno[5,4,3-cde]chromene-5,10-dione]
- fold induction at 1100 µg/mL: ~55
